Measurements from PubChem BioAssay (NCI).
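Tested at 5 concentrations; 48 h exposure; 96-well plates; endpoints linearly interpolated, else capped at highest concentration. TGI is the concentration that stops growth completely.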

Key:
Assay in all cases: DTP human tumour cell line panel, 48 h
[1] = test system: TK-10 renal
[2] = test system: HCC-2998 colon
[3] = test system: NCI-H226 lung
[4] = test system: RXF 393 renal
[5] = test system: COLO 205 colon
[6] = test system: K-562 leukemia
[7] = test system: SR leukemia
[8] = test system: A549 NSCLC
[9] = test system: ACHN renal
[10] = test system: 786-0 renal
[11] = test system: NCI-H460 lung
[12] = test system: SF-268 CNS
[13] = test system: SK-MEL-2 melanoma
[14] = test system: SK-MEL-28 melanoma
[15] = test system: EKVX NSCLC
[16] = test system: HT29 colon
[17] = test system: DMS 273 small cell lung
[18] = test system: NCI-H522 lung
[19] = test system: MOLT-4 leukemia
[20] = test system: OVCAR-8 ovarian
[21] = test system: OVCAR-3 ovarian
[22] = test system: HCT-15 colon
[23] = test system: IGROV1 ovarian
[24] = test system: OVCAR-4 ovarian
[25] = test system: SNB-75 CNS
[26] = test system: HOP-62 NSCLC
[27] = test system: UO-31 renal
[28] = test system: U251 CNS
[29] = test system: KM20L2 colon
[30] = test system: HCT-116 colon
[31] = test system: SF-295 CNS
[32] = test system: CCRF-CEM leukemia
[33] = test system: XF 498 CNS
[34] = test system: LOX IMVI melanoma
[35] = test system: UACC-62 melanoma
[36] = test system: RPMI-8226 leukemia
[37] = test system: OVCAR-5 ovarian
[38] = test system: NCI-H23 lung
[39] = test system: HL-60(TB) leukemia
[40] = test system: SK-MEL-5 melanoma
[41] = test system: SNB-19 CNS
[42] = test system: M19-MEL melanoma
[43] = test system: MALME-3M melanoma
[44] = test system: SN12C renal
[45] = test system: SF-539 CNS
[46] = test system: SNB-78 CNS
[47] = test system: DMS 114 small cell lung
[48] = test system: M14 melanoma
[49] = test system: LXFL 529 NSCLC
[50] = test system: SW-620 colon
[51] = test system: HOP-92 NSCLC
[52] = test system: A498 renal
[53] = test system: DLD-1 colon
[54] = test system: UACC-257 melanoma
[55] = test system: SK-OV-3 ovarian
[56] = test system: KM12 colon
[57] = test system: HOP-18 NSCLC
[58] = test system: CAKI-1 renal

SMILES: C#CCN(Cc1ccc2nc(-c3ccccc3)c(N)nc2c1)c1cc(OC)c(OC)c(OC)c1
- TGI [1]: > 100 µM
- TGI [2]: > 100 µM
- TGI [3]: 52 µM
- TGI [4]: 96.2 µM
- TGI [5]: 42.8 µM
- TGI [6]: > 100 µM
- TGI [7]: 39.2 µM
- TGI [8]: > 100 µM
- TGI [9]: 80.7 µM
- TGI [10]: > 100 µM
- TGI [11]: 81.1 µM
- TGI [12]: > 100 µM
- TGI [13]: 64.8 µM
- TGI [14]: > 100 µM
- TGI [15]: > 100 µM
- TGI [16]: 59 µM
- TGI [17]: 42.8 µM
- TGI [18]: 64.3 µM
- TGI [19]: 35.7 µM
- TGI [20]: > 100 µM
- TGI [21]: 59 µM
- TGI [22]: > 100 µM
- TGI [23]: > 100 µM
- TGI [24]: > 100 µM
- TGI [25]: 83.5 µM
- TGI [26]: > 100 µM
- TGI [27]: 69.3 µM
- TGI [28]: > 100 µM
- TGI [29]: > 100 µM
- TGI [30]: 57.7 µM
- TGI [31]: 66 µM
- TGI [32]: 44.8 µM
- TGI [33]: 59.5 µM
- TGI [34]: 59.3 µM
- TGI [35]: 63.7 µM
- TGI [36]: 32.3 µM
- TGI [37]: > 100 µM
- TGI [38]: > 100 µM
- TGI [39]: 41.4 µM
- TGI [40]: 25.7 µM
- TGI [41]: > 100 µM
- TGI [42]: > 100 µM
- TGI [43]: 83.3 µM
- TGI [44]: > 100 µM
- TGI [45]: > 100 µM
- TGI [46]: 78.9 µM
- TGI [47]: 37.7 µM
- TGI [48]: 93.7 µM
- TGI [49]: 91.2 µM
- TGI [50]: > 100 µM

SMILES: C[C@H](CCC1SC1(C)C)C1CCC2(C)C3=C(CC[C@]12C)[C@@]1(C)CC[C@H](O)C(C)(C)C1CC3 (some centres undefined)
- TGI [1]: > 100 µM
- TGI [2]: > 100 µM
- TGI [3]: > 100 µM
- TGI [4]: > 100 µM
- TGI [5]: > 100 µM
- TGI [6]: > 100 µM
- TGI [51]: > 100 µM
- TGI [7]: > 100 µM
- TGI [8]: > 100 µM
- TGI [52]: > 100 µM
- TGI [9]: > 100 µM
- TGI [10]: > 100 µM
- TGI [11]: > 100 µM
- TGI [12]: > 100 µM
- TGI [13]: > 100 µM
- TGI [14]: > 100 µM
- TGI [15]: > 100 µM
- TGI [16]: > 100 µM
- TGI [17]: > 100 µM
- TGI [18]: > 100 µM
- TGI [19]: > 100 µM
- TGI [20]: > 100 µM
- TGI [21]: > 100 µM
- TGI [22]: > 100 µM
- TGI [23]: > 100 µM
- TGI [24]: > 100 µM
- TGI [53]: > 100 µM
- TGI [25]: > 100 µM
- TGI [54]: > 100 µM
- TGI [26]: > 100 µM
- TGI [55]: > 100 µM
- TGI [27]: > 100 µM
- TGI [29]: > 100 µM
- TGI [30]: > 100 µM
- TGI [56]: > 100 µM
- TGI [31]: > 100 µM
- TGI [32]: > 100 µM
- TGI [33]: > 100 µM
- TGI [34]: > 100 µM
- TGI [35]: > 100 µM
- TGI [36]: > 100 µM
- TGI [37]: > 100 µM
- TGI [38]: > 100 µM
- TGI [39]: > 100 µM
- TGI [57]: > 100 µM
- TGI [40]: > 100 µM
- TGI [41]: > 100 µM
- TGI [43]: > 100 µM
- TGI [44]: > 100 µM
- TGI [58]: > 100 µM
- TGI [47]: > 100 µM
- TGI [48]: > 100 µM
- TGI [49]: > 100 µM
- TGI [50]: > 100 µM
